Assay results from patent US12435044B2, “Pyridazinone herbicides and pyridazinone intermediates used to prepare a herbicide” (FMC Corporation, priority 2018, dated 2025).

What was measured:
Format in all cases: in vivo
[1] = test system: common ragweed (AMBEL; Ambrosia artemisiifolia); test: Test J pre-/postemergence, mixtures of Cpd. No. 20 with (b15C2)
Excerpt: (§1) This test evaluated the effect of mixtures of Cpd. No. 20 with (b15C2) on several plant species. Seeds of plant species selected from corn (ZEAMD; Zea mays, cv. ‘Pioneer 1184’), soybean (GLXMA; Glycine max, cv. Pioneer 35T58), giant foxtail (SETFA; Setaria faberi), palmer amaranth (AMAPA; Amaranthus palmeri), common waterhemp (AMATU; Amaranthus rudis), mare's tail (ERICA; Conyza canadensis), and common ragweed (AMBEL; Ambrosia artemisiifolia) were planted in pots containing Tama Silt Loam soil and treated preemergence with a directed soil spray using test chemicals formulated in a non-phytotoxic solvent mixture which included a surfactant.
(§2) At the same time, plants selected from these crop and weed species were planted in pots containing Redi-Earth® planting medium (Scotts Company, 14111 Scottslawn Road, Marysville, Ohio 43041) comprising spaghnum peat moss, vermiculite, wetting agent and starter nutrients and treated postemergence with test chemicals formulated in the same manner. Plants ranged in height from 2 to 10 cm and were in the one- to two-leaf stage for the postemergence treatment. Treated plants and untreated controls were maintained in a greenhouse for approximately 14-21 d, after which time all treated plants were compared to untreated controls and visually evaluated for injury. Plant response ratings, summarized in Tables J1 & J2, are based on a 0 to 100 scale where 0 is no effect and 100 is complete control. A dash (-) response means no test result. Test results are presented as a mean of 4 reps.

[2] = test system: common waterhemp (AMATU; Amaranthus rudis); test: as above
Excerpt: as §1, §2

[3] = test system: corn (ZEAMD; Zea mays, cv. ‘Pioneer 1184’); test: as above
Excerpt: as §1, §2

[4] = test system: giant foxtail (SETFA; Setaria faberi); test: as above
Excerpt: as §1, §2

[5] = test system: mare's tail (ERICA; Conyza canadensis); test: as above
Excerpt: as §1, §2

[6] = test system: palmer amaranth (AMAPA; Amaranthus palmeri); test: as above
Excerpt: as §1, §2

[7] = test system: soybean (GLXMA; Glycine max, cv. Pioneer 35T58); test: as above
Excerpt: as §1, §2

[8] = test system: common ragweed (AMBEL; Ambrosia artemisiifolia); test: Test K pre-/postemergence, mixtures of Cpd. No. 20 with metribuzin or rimsulfuron
Excerpt: as §1, with “metribuzin or rimsulfuron” for “(b15C2)”
as §2, with “K1 to K4,” for “J1 & J2,”

[9] = test system: mare's tail (ERICA; Conyza canadensis); test: as above
Excerpt: as §1, with “metribuzin or rimsulfuron” for “(b15C2)”
as §2, with “K1 to K4,” for “J1 & J2,”

[10] = test system: palmer amaranth (AMAPA; Amaranthus palmeri); test: as above
Excerpt: as §1, with “metribuzin or rimsulfuron” for “(b15C2)”
as §2, with “K1 to K4,” for “J1 & J2,”

Cc1ccc2ccc(C)c(-c3c(O)c(Cl)nn(C)c3=O)c2c1 [Cpd. No. 20, 6-chloro-4-(2,7-dimethyl-1-naphthalenyl)-5-hydroxy-2-methyl-3(2H)-pyridazinone]
AMBEL plant response rating, 0 to 100 scale ([1]; postemergence, 8 g a.i./ha): 86
AMBEL plant response rating, 0 to 100 scale ([1]; postemergence, 16 g a.i./ha): 93
AMBEL plant response rating, 0 to 100 scale ([1]; postemergence, 31 g a.i./ha): 91
AMBEL plant response rating, 0 to 100 scale ([1]; postemergence, 62 g a.i./ha): 95
AMBEL plant response rating, 0 to 100 scale ([1]; preemergence, 8 g a.i./ha): 0
AMBEL plant response rating, 0 to 100 scale ([1]; preemergence, 16 g a.i./ha): 100
AMBEL plant response rating, 0 to 100 scale ([1]; preemergence, 31 g a.i./ha): 86
AMBEL plant response rating, 0 to 100 scale ([1]; preemergence, 62 g a.i./ha): 96
AMATU plant response rating, 0 to 100 scale ([2]; postemergence, 8 g a.i./ha): 55
AMATU plant response rating, 0 to 100 scale ([2]; postemergence, 16 g a.i./ha): 53
AMATU plant response rating, 0 to 100 scale ([2]; postemergence, 31 g a.i./ha): 71
AMATU plant response rating, 0 to 100 scale ([2]; postemergence, 62 g a.i./ha): 86
AMATU plant response rating, 0 to 100 scale ([2]; preemergence, 8 g a.i./ha): 0
AMATU plant response rating, 0 to 100 scale ([2]; preemergence, 16 g a.i./ha): 20
AMATU plant response rating, 0 to 100 scale ([2]; preemergence, 31 g a.i./ha): 29
AMATU plant response rating, 0 to 100 scale ([2]; preemergence, 62 g a.i./ha): 50
ZEAMD plant response rating, 0 to 100 scale ([3]; postemergence, 8 g a.i./ha): 0
ZEAMD plant response rating, 0 to 100 scale ([3]; postemergence, 16 g a.i./ha): 0
ZEAMD plant response rating, 0 to 100 scale ([3]; postemergence, 31 g a.i./ha): 0
ZEAMD plant response rating, 0 to 100 scale ([3]; postemergence, 62 g a.i./ha): 0
ZEAMD plant response rating, 0 to 100 scale ([3]; preemergence, 8 g a.i./ha): 0
ZEAMD plant response rating, 0 to 100 scale ([3]; preemergence, 16 g a.i./ha): 0
ZEAMD plant response rating, 0 to 100 scale ([3]; preemergence, 31 g a.i./ha): 0
ZEAMD plant response rating, 0 to 100 scale ([3]; preemergence, 62 g a.i./ha): 0
SETFA plant response rating, 0 to 100 scale ([4]; postemergence, 8 g a.i./ha): 34
SETFA plant response rating, 0 to 100 scale ([4]; postemergence, 16 g a.i./ha): 69
SETFA plant response rating, 0 to 100 scale ([4]; postemergence, 31 g a.i./ha): 75
SETFA plant response rating, 0 to 100 scale ([4]; postemergence, 62 g a.i./ha): 80
SETFA plant response rating, 0 to 100 scale ([4]; preemergence, 8 g a.i./ha): 15
SETFA plant response rating, 0 to 100 scale ([4]; preemergence, 16 g a.i./ha): 63
SETFA plant response rating, 0 to 100 scale ([4]; preemergence, 31 g a.i./ha): 78
SETFA plant response rating, 0 to 100 scale ([4]; preemergence, 62 g a.i./ha): 89
ERICA plant response rating, 0 to 100 scale ([5]; postemergence, 8 g a.i./ha): 85
ERICA plant response rating, 0 to 100 scale ([5]; postemergence, 16 g a.i./ha): 90
ERICA plant response rating, 0 to 100 scale ([5]; postemergence, 31 g a.i./ha): 90
ERICA plant response rating, 0 to 100 scale ([5]; postemergence, 62 g a.i./ha): 90
ERICA plant response rating, 0 to 100 scale ([5]; preemergence, 8 g a.i./ha): 58
ERICA plant response rating, 0 to 100 scale ([5]; preemergence, 16 g a.i./ha): 90
ERICA plant response rating, 0 to 100 scale ([5]; preemergence, 31 g a.i./ha): 94
ERICA plant response rating, 0 to 100 scale ([5]; preemergence, 62 g a.i./ha): 95
AMAPA plant response rating, 0 to 100 scale ([6]; postemergence, 8 g a.i./ha): 18
AMAPA plant response rating, 0 to 100 scale ([6]; postemergence, 16 g a.i./ha): 15
AMAPA plant response rating, 0 to 100 scale ([6]; postemergence, 31 g a.i./ha): 33
AMAPA plant response rating, 0 to 100 scale ([6]; postemergence, 62 g a.i./ha): 63
AMAPA plant response rating, 0 to 100 scale ([6]; preemergence, 8 g a.i./ha): 20
AMAPA plant response rating, 0 to 100 scale ([6]; preemergence, 16 g a.i./ha): 46
AMAPA plant response rating, 0 to 100 scale ([6]; preemergence, 31 g a.i./ha): 48
AMAPA plant response rating, 0 to 100 scale ([6]; preemergence, 62 g a.i./ha): 60
GLXMA plant response rating, 0 to 100 scale ([7]; postemergence, 8 g a.i./ha): 3
GLXMA plant response rating, 0 to 100 scale ([7]; postemergence, 16 g a.i./ha): 4
GLXMA plant response rating, 0 to 100 scale ([7]; postemergence, 31 g a.i./ha): 9
GLXMA plant response rating, 0 to 100 scale ([7]; postemergence, 62 g a.i./ha): 6
GLXMA plant response rating, 0 to 100 scale ([7]; preemergence, 8 g a.i./ha): 0
GLXMA plant response rating, 0 to 100 scale ([7]; preemergence, 16 g a.i./ha): 0
GLXMA plant response rating, 0 to 100 scale ([7]; preemergence, 31 g a.i./ha): 0
GLXMA plant response rating, 0 to 100 scale ([7]; preemergence, 62 g a.i./ha): 20
AMBEL plant response rating, 0 to 100 scale ([8]; postemergence, 8 g a.i./ha): 82
AMBEL plant response rating, 0 to 100 scale ([8]; postemergence, 16 g a.i./ha): 82
AMBEL plant response rating, 0 to 100 scale ([8]; postemergence, 31 g a.i./ha): 92
AMBEL plant response rating, 0 to 100 scale ([8]; postemergence, 62 g a.i./ha): 97
AMBEL plant response rating, 0 to 100 scale ([8]; preemergence, 8 g a.i./ha): 0
AMBEL plant response rating, 0 to 100 scale ([8]; preemergence, 16 g a.i./ha): 26
AMBEL plant response rating, 0 to 100 scale ([8]; preemergence, 31 g a.i./ha): 55
AMBEL plant response rating, 0 to 100 scale ([8]; preemergence, 62 g a.i./ha): 100
ERICA plant response rating, 0 to 100 scale ([9]; postemergence, 8 g a.i./ha): 77
ERICA plant response rating, 0 to 100 scale ([9]; postemergence, 16 g a.i./ha): 85
ERICA plant response rating, 0 to 100 scale ([9]; postemergence, 31 g a.i./ha): 92
ERICA plant response rating, 0 to 100 scale ([9]; postemergence, 62 g a.i./ha): 93
ERICA plant response rating, 0 to 100 scale ([9]; preemergence, 8 g a.i./ha): 89
ERICA plant response rating, 0 to 100 scale ([9]; preemergence, 16 g a.i./ha): 100
ERICA plant response rating, 0 to 100 scale ([9]; preemergence, 31 g a.i./ha): 100
ERICA plant response rating, 0 to 100 scale ([9]; preemergence, 62 g a.i./ha): 100
AMAPA plant response rating, 0 to 100 scale ([10]; postemergence, 8 g a.i./ha): 28
AMAPA plant response rating, 0 to 100 scale ([10]; postemergence, 16 g a.i./ha): 38
AMAPA plant response rating, 0 to 100 scale ([10]; postemergence, 31 g a.i./ha): 33
AMAPA plant response rating, 0 to 100 scale ([10]; postemergence, 62 g a.i./ha): 60
AMAPA plant response rating, 0 to 100 scale ([10]; preemergence, 8 g a.i./ha): 0
AMAPA plant response rating, 0 to 100 scale ([10]; preemergence, 16 g a.i./ha): 26
AMAPA plant response rating, 0 to 100 scale ([10]; preemergence, 31 g a.i./ha): 50
AMAPA plant response rating, 0 to 100 scale ([10]; preemergence, 62 g a.i./ha): 45
